This is an account of results in patent publication US4588731A, “Derivatives of isoxazolo[4,5-c]quinoline(2H)-3-one and method of preparation and use as anxiolytic agents” (Roussel Uclaf, priority 1985, dated 1986).

For series [1], the system named is mice. Briefly: Acute toxicity, oral route in mice (LD0). The format is in vivo. The protocol:
The lethal doses LD0 of the different compounds tested after administration by oral route in mice were evaluated. The maximum dose not provoking any mortality in 8 days was called LD0 and the results obtained are in Table II.

Series [2] addresses benzodiazepine receptors. Nature of the series: Affinity for benzodiazepine receptors (3H diazepam displacement, rat brain cortex membranes). The series is classed as binding, rats. The settings on record: 3H diazepam 10^-9 M, 30 minutes at 0° C, read-out: C.I. 50 (concentration inhibiting 50% of the specific bond of 3H diazepam). The protocol:
A. Affinity for benzodiazepine receptors
The technique was inspired by that of Mohler et al [Science, Vol. 198 p. 849-851 (1977] in which the cortex from the brains of male rats weighing on average 150 g were homogenized to a twentieth (weight/volume) in 0.32M sucrose. After centrifuging the homogenate at 1000 g for 10 minutes at 0° C., the supernatant was centrifuged at 30,000 g for 20 minutes at 4° C. The residue was suspended in 20 volumes of Tris buffer HCl 50 mM pH 7.4 and centrifuged at 30,000 g for 20 minutes at 4° C. The new residue obtained was placed in 50 ml of Krebs Tris buffer HCl pH 7.4
2 ml of the suspension in the presence of ^3 H diazepam at a concentration of 10^-9 M were then incubated for 30 minutes at 0° C: (i) alone, (ii) with increasing concentrations of the product to be tested or, (iii) to determine the non-specific fixation, with non-radioactive diazepam at a concentration of 10^-6 M. The incubated suspension were filtered on Whatman GF/C and the filters were washed twice with 5 ml of Krebs Tris buffer HCl pH 7.4 at 0° C. The radioactivity of the filters was measured by liquid scintillation and the activity of the product was expressed in C.I.50, the concentration inhibiting 50% of the specific bond of ^3 H diazepam.

The test system of series [3] is level of serous corticosterone. Nature of the series: Activity on serous level of corticosterone after stress from noise. The following applies: Rattus norvegicus, 1 h; rats, oral, stress from noise (90 decibels) one hour after dosing; read-out: DE50 (dose which reduced the increase in the level of serous corticosterone by 50%). The series is classed as in vivo. The protocol: C. Activity on serous level of corticosterone after stress from noise.
Groups of 5 rats were formed the day before the test and placed in a quiet room. The compounds were administered orally the following day between 8 and 9 o'clock in the morning. One hour afterwards, stress was applied which consisted of taking the animals from the cage and placing them in a room where a radio was playing loudly (90 decibels), then half an hour later, giving them an intraperitoneal puncture without injection. Ten minutes after this, the rats were anesthetized with halothane and samples of blood were taken by decapitation. The levels of serous corticosterone were then determined.
The results are expressed in DE50, that is to say in a dose of the compound tested which reduced the increase in the level of serous corticosterone by 50% in animals treated in comparison with the control animals. The results were DE50 in mg/kg of <50 and <100 for the compounds of Examples 2 and 4, respectively. Stress was less noticeable in the treated animals and those animals had therefore a degree of anxiety less than that of the control animals.

As for `COc1ccc2c(c1)ncc1c(=O)n(-c3ccccc3)oc12` [Example 3, 7-methoxy-2-phenylisoxazolo(4,5-c)quinolin-3-(2H)-one], the “LD0 (maximum dose not provoking any mortality in 8 days)” value in series [1] was at least 200 mg/kg.

Regarding `O=c1c2cnc3ccc(F)cc3c2on1-c1ccccc1` [Example 2, 8-fluoro-2-phenylisoxazolo(4,5-c)quinolin-3-(2H)-one], in series [2], the IC50 was determined as 400 nM. In addition, in series [3], the ED50 was below 50 mg/kg. For the same compound, in series [1], the “LD0 (maximum dose not provoking any mortality in 8 days)” value was at least 400 mg/kg.

Turning to `O=c1c2cnc3ccc(Cl)cc3c2on1-c1ccccc1` [Example 7, 8-chloro-2-phenylisoxazolo(4,5-c)quinolin-3-(2H)-one], the “LD0 (maximum dose not provoking any mortality in 8 days)” value in series [1] is listed as at least 100 mg/kg.

Take `O=c1c2cnc3ccccc3c2on1-c1ccccc1` [Example 1, 2-phenylisoxazolo(4,5-c)quinolin-3-(2H)-one]: in series [2], the IC50 was determined as 120 nM. Moreover, the “LD0 (maximum dose not provoking any mortality in 8 days)” value in series [1] was at least 400 mg/kg.

Consider `O=c1c2cnc3ccc(C(F)(F)F)cc3c2on1-c1ccccc1` [Example 5, 8-trifluoromethyl-2-phenylisoxazolo(4,5-c)quinolin-3-(2H)-one], for which, in series [1], the “LD0 (maximum dose not provoking any mortality in 8 days)” value was at least 200 mg/kg.

With `COc1ccc2ncc3c(=O)n(-c4ccccc4)oc3c2c1` [Example 4, 8-methoxy-2-phenylisoxazolo(4,5-c)quinolin-3-(2H)-one], the IC50 in series [2] came to 2460 nM. Also, the ED50 in series [3] was below 100 mg/kg. Also, the “LD0 (maximum dose not provoking any mortality in 8 days)” value in series [1] was 200 mg/kg.
